Results published in BigSolDB 2.1.

Nc1cnc(Br)cn1
solubility (mole fraction)
Conditions | in DMF | in acetone | in ethanol | in ethylene glycol | in isopropanol | in methanol | in n-butanol | in n-propanol | in propylene glycol | in water
278.15 K | 0.00849 | 0.00684 | 0.00144 | 0.000694 | 0.00282 | 0.000887 | 0.00541 | 0.00353 | 0.00113 | 1.76e-05
283.15 K | 0.00942 | 0.0076 | 0.00158 | 0.000773 | 0.00308 | 0.000981 | 0.00601 | 0.00392 | 0.00125 | 1.93e-05
288.15 K | 0.0106 | 0.00856 | 0.00174 | 0.000869 | 0.0034 | 0.00108 | 0.00678 | 0.00445 | 0.00139 | 2.18e-05
293.15 K | 0.0119 | 0.00961 | 0.00194 | 0.00097 | 0.0038 | 0.00121 | 0.00757 | 0.00497 | 0.00153 | 2.43e-05
298.15 K | 0.0133 | 0.0108 | 0.00217 | 0.00109 | 0.00429 | 0.00135 | 0.00853 | 0.00563 | 0.00173 | 2.73e-05
303.15 K | 0.0149 | 0.012 | 0.00243 | 0.00121 | 0.00477 | 0.00151 | 0.00953 | 0.00625 | 0.00192 | 3.08e-05
308.15 K | 0.0165 | 0.0134 | 0.00272 | 0.00135 | 0.00531 | 0.00167 | 0.0106 | 0.00696 | 0.00216 | 3.42e-05
313.15 K | 0.0185 | 0.0149 | 0.00308 | 0.00149 | 0.00594 | 0.00185 | 0.0118 | 0.00774 | 0.00239 | 3.83e-05
318.15 K | 0.0205 | 0.0165 | 0.00345 | 0.00166 | 0.0066 | 0.00204 | 0.0131 | 0.00858 | 0.00266 | 4.27e-05
323.15 K | 0.0227 | 0.0183 | 0.0039 | 0.00184 | 0.00735 | 0.00225 | 0.0145 | 0.0095 | 0.00294 | 4.77e-05
